Measurements: patent US6391329B1, “Insect pest control method” (Earth Chemical Co., Ltd., priority 1994, dated 2002)
Where two headings read alike, the source gives them in different places.

Legend:
[1] = Vapor pressure at 30° C. on the cox diagram; format: physicochemical
Method: Compounds which are hard to vaporize at normal temperature can be used in the present invention as a pesticidal component. Those having a vapor pressure […] than 1×10^−7 mmHg at 30° C. and a boiling point of not lower than 120° C./1 mmHg are preferred. It should be noted that the range of vapor pressure as referred to herein is the range at 30° C. on the vapor pressure vs. temperature plot in the cox diagram hereinafter described.
The results of our study have made it possible to suppose or know the vapor pressure at a target temperature by utilizing the cox diagram only if at least one found value is available. The aforesaid problem can thus be solved.
The cox diagram as used herein is the straight line or a group of the straight lines obtained by plotting log P as ordinate and t/(t+C) as abscissa on a graph.

[2] = tested on: Northern house mosquito (female adult); assay: Insecticidal test in acrylic resin cylinder, air blown through impregnated honeycomb carrier (Example 1); format: in vivo; settings: 500 mg preparation; for number of knockdowns: 26 to 30° C.
Description: Testing apparatus 1 shown in FIG. 1 comprising acrylic resin cylinder 4 was used. Twenty of northern house mosquitos (female adult) were put in the space partitioned with insect nets 2, and blower 3 was set at the bottom of testing apparatus 1. Preparation-retaining material 5 comprising a honeycomb carrier impregnated with a preparation was fitted in at the lower part of cylinder 4 and above blower 3. Air was blown from the bottom of cylinder 4 and passed through the preparation-retaining material 5 to release the pesticidal component from the preparation, and the insecticidal effect was examined using apparatus 1 for insect control of the present invention.
The number of knockdowns of the mosquitos was counted for every 30 seconds during 10 minutes and 30 seconds following the start of the testing. The mosquitos knocked down were transferred to a clean plastic cup (volume: about 500 ml) containing a cotton wad impregnated with a 1% aqueous sugar solution as feed, and the cup was covered and maintained under constant temperature conditions of about 25° C. […]
The preparation-retaining material used herein was prepared as follows. A honeycomb structure (70×70×15 mm) comprising a laminate of corrugated boards (single-sided) made of bleached kraft paper having a basis weight of 80 g/m^2 (height of the corrugation: about 2 mm) was uniformly impregnated with 3 ml of an acetone solution containing about 500 mg of preparation. The impregnated carrier was set in the apparatus after acetone vaporized.

[3] = tested on: sensitive German cockroaches (Blatella germanica); assay: Cockroach knockdown and mortality in 24 m^3 test room (Example 3); format: in vivo; settings: 1.0 g pesticidal component
Method: (§1) The insect pest control apparatus of the present invention was put at the center of the floor of the room, and two cups each containing 20 cockroaches were placed at each of the two opposite corners of the floor. The pesticidal component shown in Table 5 below was released from the apparatus for consecutive 24 hours. As test insects, sensitive German cockroaches (Blatella germanica) and sensitive smokybrown cockroaches (Periplaneta fuliginosa) were used.
(§2) The preparation-retaining material used was prepared by impregnating a honeycomb carrier (70×70×15 mm; FIG. 3) with 1.0 g of the pesticidal component.

[4] = tested on: sensitive smokybrown cockroaches (Periplaneta fuliginosa); assay: as above; format: in vivo; settings: 1.0 g pesticidal component
Method: as §1, §2

[5] = Vapor pressure measurement of pyrethroid compounds with the vapor pressure measuring apparatus
[6] = at 30° C.; cited from earlier work

With C#CC(OC(=O)C1C(C=C(C)C)C1(C)C)/C(C)=C/CC (mixture of isomers) [empenthrin, 1-ethynyl-2-methyl-2-pentenyl dl-cis/trans-3-(2,2-dimethylvinyl)-2,2-dimethyl-1-cyclopropanecarboxylate] the “Vapor Pressure at 30° C.” value [1] was 1.5 × 10^−3 mmHg, the number of knockdowns ([2]; 0.5 min) was 0 and the number of knockdowns ([2]; 1.0 min) was 0. The number of knockdowns ([2]; 1.5 min) was 1, the number of knockdowns ([2]; 2.0 min) was 2 and the number of knockdowns ([2]; 2.5 min) was 5. For the same compound, the number of knockdowns ([2]; 3.0 min) was 10, the number of knockdowns ([2]; 3.5 min) was 16 and the number of knockdowns ([2]; 4.0 min) was 25. For the same compound, the “Mortality (%)” value ([2]; 24 hrs.) was 96%, the “Mortality (%)” value ([2]; 48 hrs.) was 100% and the “Knockdown Ratio (%)” value ([3]; 1 hr) was 0%. The “Knockdown Ratio (%)” value ([3]; 2 hrs) was 0%, the “Knockdown Ratio (%)” value ([3]; 4 hrs) was 0% and the “Knockdown Ratio (%)” value ([3]; 24 hrs) was 90.0%. The “Mortality at 48 hrs (%)” value ([3]; 48 hrs) was 90.0%, the “Knockdown Ratio (%)” value ([4]; 1 hr) was 0% and the “Knockdown Ratio (%)” value ([4]; 2 hrs) was 0%. The “Knockdown Ratio (%)” value ([4]; 4 hrs) was 0%, the “Knockdown Ratio (%)” value ([4]; 24 hrs) was 65.0% and the “Mortality at 48 hrs (%)” value ([4]; 48 hrs) was 75.0%. The “Vapor Pressure” value ([5]; 20° C.) was 5.1 × 10^−4 mmHg, the “Vapor Pressure” value ([5]; 25° C.) was 9.2 × 10^−4 mmHg and the “Vapor Pressure” value ([5]; 30° C.) was 1.6 × 10^−3 mmHg. For the same compound, the “Vapor Pressure” value ([5]; 35° C.) was 2.8 × 10^−3 mmHg and the “Vapor Pressure” value ([5]; 40° C.) was 4.8 × 10^−3 mmHg.

For COP(=O)(OC)OC=C(Cl)Cl [DDVP], the Vapor Pressure [6] is listed as 1×10^−2 mmHg, the “Vapor Pressure” value ([5]; 20° C.) is listed as 1.2 × 10^−2 mmHg and the “Vapor Pressure” value ([5]; 25° C.) is listed as 1.9 × 10^−2 mmHg. The “Vapor Pressure” value ([5]; 30° C.) was 3.0 × 10^−2 mmHg, the “Vapor Pressure” value ([5]; 35° C.) was 4.6 × 10^−2 mmHg and the “Vapor Pressure” value ([5]; 40° C.) was 7.1 × 10^−2 mmHg.
